Reference: patent US11022604B2, “Dock derived compound against laminin receptor (37 LR) and uses thereof” (Purdue Research Foundation, priority 2017, dated 2021)

System: EA.hy926 endothelial cells
Assay: Angiogenesis tube formation assay
Type: cell-based
Experimental: Expression of PEDF-signaling associated genes from PC-3 cells treated with 50 μM C3, compared to DMSO control and normalized to GAPDH (n=3, mean±SEM). A Holm-Sidak multiple t test was used for statistical analysis (*p<0.05,**O<0.01, ***<0.001). […] Average tube count for 0.1% DMSO, 0.5% DMSO, and 1, 10 and 50 μM treatment with C3 (n=7, mean±SEM). 1 and 10 μM C3 were compared with respective 0.5% DMSO (unpaired two-tailed t test, ****<0.0001). 50 μM C3 was compared with respective 0.1% DMSO (unpaired two-tailed t test p<0.0001).
Wound Healing Assay. PC-3 cells were seeded in 6 well plates at 3×10^5 cells per well in complete media until the cells reached confluency. Three horizontal and three vertical scratches were made in the confluent monolayers using a standard 200 μL pipette tip and cellular debris were removed by washing with 1×DPBS three times. 1×RPMI-1640 supplemented with C3 or DMSO was added and cells were incubated for 48 hours as described previously. […] Images were uploaded and analyzed for scratch geometry using the tscratch program (96). First, global thresholding was performed, then individual images were manually inspected for single image threshold adjustment and scratch geometries were quantified. […] The samples were analyzed using the Dionex UltiMate 3000 RSLC Nano System coupled to the Q Exactive™ HF Hybrid Quadrupole-Orbitrap MS (Thermo Scientific). […]

calcein uptake: did not alter calcein uptake
Structure (SMILES): O=C(c1cc(F)cc2c1OCOC2)N1CCN(C2c3ccccc3-c3ccccc32)CC1 [Compound C3, [4-(9h-fluoren-9-yl)piperazino](6-fluoro-4h-1,3-benzodioxin-8-yl)methanone]
